Source: paper PMC9841576, “Characterisation of C101248: A novel selective THIK-1 channel inhibitor for the modulation of microglial NLRP3-inflammasome” (Neuropharmacology, 2023)

Assays:
THIK-1 = molecular target: T1, THIK-1 (Homo sapiens, UniProt Q9HB14); assay: Whole-cell manual patch clamp of HEK-hTHIK-1 cells with rapid perfusion exchanger; type: cell-based; conditions: current at 50 mV
T1 construct: expressed in transfected cells
T1 sequence (Q9HB14 1-408): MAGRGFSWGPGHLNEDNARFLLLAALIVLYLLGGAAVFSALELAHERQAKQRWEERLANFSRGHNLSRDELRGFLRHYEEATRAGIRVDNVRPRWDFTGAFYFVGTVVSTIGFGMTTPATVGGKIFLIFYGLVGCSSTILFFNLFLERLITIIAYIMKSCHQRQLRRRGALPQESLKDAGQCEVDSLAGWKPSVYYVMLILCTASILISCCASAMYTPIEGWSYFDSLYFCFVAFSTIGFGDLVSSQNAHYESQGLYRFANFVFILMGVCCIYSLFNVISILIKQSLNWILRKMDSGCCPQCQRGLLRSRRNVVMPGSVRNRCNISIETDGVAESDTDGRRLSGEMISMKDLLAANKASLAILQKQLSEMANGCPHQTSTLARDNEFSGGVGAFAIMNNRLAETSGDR
Experimental: Cells were plated onto uncoated, sterile glass coverslips at a density of 1 × 10^6 cells/ml in a droplet of approximately 200 μl and incubated at 37 °C/5% CO2 before use at least 24 h later. Coverslips were transferred to the microscope stage chamber and cells visualised under IR-DIC illumination. The chamber was gravity perfused with a solution containing (in mM): 140 NaCl, 2.5 KCl, 10 HEPES, 1 NaH2PO4.H20, 2 CaCl2, 1 MgCl2, 10 glucose, with pH adjusted to 7.4 using NaOH and osmolarity adjusted to 320 mOsM using sucrose. The chamber was fed from a rapid perfusion exchanger, which continuously perfused square, multi-barrelled glass tubes, using laminar flow. Cells were patched using micropipettes filled with a solution containing (in mM): 125 KCl, 4 NaCl, 1 CaCl2, 10 HEPES, 10 EGTA, 4 MgATP, 2 Na2ATP, 2 MgCl2, 0.5 Na2GTP, pH adjusted to 7.1 with KOH and osmolarity adjusted to 320 mOsm with sucrose. The liquid junction potential was calculated to be 4.8 mV and was not corrected for. […] The current at 50 mV from each sweep was measured and plotted against time. Curves were fitted in GraphPad Prism to a one phase decay [Y= IF(X < X0, Y0, Plateau+(Y0-Plateau)*exp(-K*(X-X0))), where x = time, y = Y0 until X = X0 then decays down to plateau with one phase, K = rate constant]. τ values were calculated to determine the activation time constant.

[1] = test system: other constitutively active resting conductance in microglia; assay: Whole-cell patch clamp of microglia in hippocampal slices: other resting and voltage-dependent currents; type: cell-based, mouse; conditions: 5 μM
Experimental: Acute hippocampal slices (300 μm thick), from 3 to 4 months old mice, were prepared using a specially adapted protective slicing solution ([Ting et al., 2014]) containing (mM) 93 choline chloride, 20 HEPES, 30 NaHCO3, 2.5 KCl, 0.5 CaCl2, 10 MgCl2, 1.2 NaH2PO4, 25 glucose, 1 kynurenic acid, 5 Na-ascorbate, 3 Na-pyruvate, pH adjusted to 7.4, bubbled with 95% O2/5% CO2 and cooled at <4 °C, and a recovery solution containing (mM) 92 NaCl, 20 HEPES, 30 NaHCO3, 2.5 KCl, 2 CaCl2, 1 MgCl2, 1.2 NaH2PO4, 25 glucose, 1 kynurenic acid, 5 Na-ascorbate, 3 Na-pyruvate, pH set to 7.4 and bubbled with 95% O2/5% CO2
Immediately after slicing, slices were placed for 13 min in warm (33–35 °C) slicing solution and then transferred to recovery solution at room temperature until experimental usage. […] Slices were perfused with bicarbonate-buffered solution, at 34–36 °C for all experiments, containing (mM) 124 NaCl, 2.5 KCl, 26 NaHCO3, 1 NaH2PO4, 2 CaCl2, 1 MgCl2, 10 glucose, bubbled with 95% O2/5% CO2. Microglia were whole-cell clamped with electrodes containing K-gluconate based solution, comprising (mM) 130 K-glu, 4 NaCl, 1 CaCl2, 10 HEPES, 10 EGTA, 4 MgATP, 0.5 Na2GTP, pH set to 7.2 with KOH and osmolarity adjusted to […]. […] Currents were filtered at 1 kHz, digitized (10 kHz) and analysed off-line using pClamp10 software.

Calcium Channel CaV1.2 = Calcium Channel CaV1.2 (Homo sapiens, UniProt Q13936); assay: Promiscuity screening panel, radiometric binding; conditions: read-out: % inhibition at 10 µM (n=2)
Experimental: (§1) C101248 was further profiled in a promiscuity screening panel, using radiometric binding assays, against a selection of 18 diverse targets at 10 μM (Supplementary Table 2).
(§2) Supplementary Table 2: Promiscuity screening panel data for C101248. Compound was screened at 10 µM, in duplicate, using radiometric binding assays

Cannabinoid CB1 = Cannabinoid CB1 (Homo sapiens, UniProt P21554); assay: Promiscuity screening panel, radiometric binding; conditions: read-out: % inhibition at 10 µM (n=2)
Experimental: as §1, §2

Histamine H1 = Histamine H1 (Homo sapiens, UniProt P35367); assay: Promiscuity screening panel, radiometric binding; conditions: read-out: % inhibition at 10 µM (n=2)
Experimental: as §1, §2

Cannabinoid CB1, sequence (P21554 whole entry): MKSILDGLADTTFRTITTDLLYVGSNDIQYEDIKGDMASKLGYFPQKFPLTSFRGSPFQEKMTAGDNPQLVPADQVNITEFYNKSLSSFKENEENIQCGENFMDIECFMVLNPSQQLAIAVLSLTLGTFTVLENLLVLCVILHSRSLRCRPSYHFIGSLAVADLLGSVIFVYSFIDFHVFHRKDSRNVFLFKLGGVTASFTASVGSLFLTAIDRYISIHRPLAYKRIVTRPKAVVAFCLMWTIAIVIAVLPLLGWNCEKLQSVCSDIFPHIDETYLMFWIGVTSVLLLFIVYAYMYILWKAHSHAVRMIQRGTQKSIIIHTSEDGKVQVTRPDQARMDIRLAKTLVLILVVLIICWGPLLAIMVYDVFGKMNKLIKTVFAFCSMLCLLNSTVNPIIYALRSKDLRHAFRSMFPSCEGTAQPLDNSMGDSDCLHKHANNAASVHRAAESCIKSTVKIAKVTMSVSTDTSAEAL
Histamine H1, sequence (P35367 whole entry): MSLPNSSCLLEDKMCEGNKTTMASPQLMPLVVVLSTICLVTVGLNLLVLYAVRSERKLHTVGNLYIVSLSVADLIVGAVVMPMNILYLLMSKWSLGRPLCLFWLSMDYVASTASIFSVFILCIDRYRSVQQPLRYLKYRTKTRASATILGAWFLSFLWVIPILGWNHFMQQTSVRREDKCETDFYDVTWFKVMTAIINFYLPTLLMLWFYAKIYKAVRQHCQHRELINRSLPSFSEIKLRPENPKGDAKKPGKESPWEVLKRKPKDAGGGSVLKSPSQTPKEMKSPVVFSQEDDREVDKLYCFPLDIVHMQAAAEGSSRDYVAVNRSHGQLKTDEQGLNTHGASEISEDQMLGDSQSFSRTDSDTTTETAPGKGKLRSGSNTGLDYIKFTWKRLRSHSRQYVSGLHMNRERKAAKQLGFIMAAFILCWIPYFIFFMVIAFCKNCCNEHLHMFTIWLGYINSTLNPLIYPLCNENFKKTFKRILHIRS
Calcium Channel CaV1.2, sequence (Q13936 whole entry): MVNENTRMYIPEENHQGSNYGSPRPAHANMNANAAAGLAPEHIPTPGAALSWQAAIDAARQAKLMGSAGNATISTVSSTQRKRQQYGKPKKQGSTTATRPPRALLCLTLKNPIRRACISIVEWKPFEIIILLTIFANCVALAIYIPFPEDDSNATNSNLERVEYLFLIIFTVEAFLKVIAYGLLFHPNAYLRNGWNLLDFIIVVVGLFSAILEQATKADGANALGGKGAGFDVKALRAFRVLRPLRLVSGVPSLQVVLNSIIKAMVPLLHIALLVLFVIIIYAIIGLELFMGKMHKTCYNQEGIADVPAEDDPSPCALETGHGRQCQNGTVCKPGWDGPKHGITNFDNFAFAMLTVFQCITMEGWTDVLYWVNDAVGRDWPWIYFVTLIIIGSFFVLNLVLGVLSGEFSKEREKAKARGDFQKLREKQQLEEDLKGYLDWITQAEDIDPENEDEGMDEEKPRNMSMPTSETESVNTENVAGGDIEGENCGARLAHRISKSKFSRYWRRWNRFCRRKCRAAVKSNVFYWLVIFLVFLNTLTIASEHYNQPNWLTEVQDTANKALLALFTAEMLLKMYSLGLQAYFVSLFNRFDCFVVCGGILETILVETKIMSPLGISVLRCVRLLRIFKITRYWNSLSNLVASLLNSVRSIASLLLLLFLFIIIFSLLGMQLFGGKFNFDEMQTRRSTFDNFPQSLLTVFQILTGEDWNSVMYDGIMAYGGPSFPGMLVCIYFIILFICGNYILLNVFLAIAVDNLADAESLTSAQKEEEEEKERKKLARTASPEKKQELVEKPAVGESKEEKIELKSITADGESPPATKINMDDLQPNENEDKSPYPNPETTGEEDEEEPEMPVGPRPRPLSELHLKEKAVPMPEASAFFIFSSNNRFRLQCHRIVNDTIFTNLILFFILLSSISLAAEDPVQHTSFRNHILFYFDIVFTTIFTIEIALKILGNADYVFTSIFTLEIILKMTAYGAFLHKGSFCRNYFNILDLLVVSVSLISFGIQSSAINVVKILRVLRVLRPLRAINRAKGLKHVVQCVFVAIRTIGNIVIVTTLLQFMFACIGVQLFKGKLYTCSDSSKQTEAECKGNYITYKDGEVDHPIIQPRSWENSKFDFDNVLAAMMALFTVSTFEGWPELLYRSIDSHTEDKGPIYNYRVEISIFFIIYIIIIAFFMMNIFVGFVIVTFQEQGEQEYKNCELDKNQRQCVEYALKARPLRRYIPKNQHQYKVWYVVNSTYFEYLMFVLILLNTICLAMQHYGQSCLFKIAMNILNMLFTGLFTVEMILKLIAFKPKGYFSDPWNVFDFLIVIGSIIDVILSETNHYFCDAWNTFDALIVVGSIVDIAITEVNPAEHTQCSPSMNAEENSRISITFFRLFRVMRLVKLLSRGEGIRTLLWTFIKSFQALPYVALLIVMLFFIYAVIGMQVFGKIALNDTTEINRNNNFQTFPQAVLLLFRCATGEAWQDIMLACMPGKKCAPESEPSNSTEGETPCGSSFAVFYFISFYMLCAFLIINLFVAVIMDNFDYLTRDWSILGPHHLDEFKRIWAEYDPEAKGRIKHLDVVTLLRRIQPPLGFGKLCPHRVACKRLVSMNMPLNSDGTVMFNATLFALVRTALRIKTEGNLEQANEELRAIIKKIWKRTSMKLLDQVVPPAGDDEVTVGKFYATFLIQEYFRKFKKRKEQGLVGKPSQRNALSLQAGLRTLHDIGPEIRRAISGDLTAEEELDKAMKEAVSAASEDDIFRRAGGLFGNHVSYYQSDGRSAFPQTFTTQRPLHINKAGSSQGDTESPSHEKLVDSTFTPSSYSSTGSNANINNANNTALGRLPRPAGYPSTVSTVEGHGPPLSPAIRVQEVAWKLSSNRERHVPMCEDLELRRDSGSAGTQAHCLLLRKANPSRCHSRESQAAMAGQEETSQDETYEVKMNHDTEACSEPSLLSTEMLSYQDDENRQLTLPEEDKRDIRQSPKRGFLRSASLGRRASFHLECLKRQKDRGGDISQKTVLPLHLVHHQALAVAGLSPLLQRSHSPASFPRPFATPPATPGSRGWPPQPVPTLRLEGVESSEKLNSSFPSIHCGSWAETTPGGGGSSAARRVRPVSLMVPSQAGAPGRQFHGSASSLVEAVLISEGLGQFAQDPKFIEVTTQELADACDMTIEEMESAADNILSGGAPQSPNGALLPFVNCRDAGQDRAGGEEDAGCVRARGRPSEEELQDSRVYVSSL
Calcium Channel CaV1.2, sequence (Q08289 whole entry partner): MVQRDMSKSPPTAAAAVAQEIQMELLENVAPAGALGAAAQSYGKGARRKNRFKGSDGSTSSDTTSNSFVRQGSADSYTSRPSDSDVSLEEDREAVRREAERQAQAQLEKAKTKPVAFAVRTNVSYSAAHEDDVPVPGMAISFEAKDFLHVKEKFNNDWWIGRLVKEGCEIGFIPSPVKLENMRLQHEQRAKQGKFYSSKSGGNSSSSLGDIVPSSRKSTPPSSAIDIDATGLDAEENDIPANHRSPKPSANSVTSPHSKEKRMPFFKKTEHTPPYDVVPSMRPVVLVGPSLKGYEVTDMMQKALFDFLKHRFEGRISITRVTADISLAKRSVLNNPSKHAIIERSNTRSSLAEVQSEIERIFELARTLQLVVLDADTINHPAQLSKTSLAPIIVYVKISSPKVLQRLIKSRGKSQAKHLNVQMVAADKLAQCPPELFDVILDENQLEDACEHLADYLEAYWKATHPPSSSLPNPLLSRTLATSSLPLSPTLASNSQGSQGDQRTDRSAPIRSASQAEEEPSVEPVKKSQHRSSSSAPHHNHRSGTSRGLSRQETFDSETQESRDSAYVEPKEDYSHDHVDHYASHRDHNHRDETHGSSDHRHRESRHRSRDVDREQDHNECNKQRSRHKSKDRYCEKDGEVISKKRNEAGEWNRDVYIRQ
Calcium Channel CaV1.2, sequence (P54289 25-956 partner limits assumed): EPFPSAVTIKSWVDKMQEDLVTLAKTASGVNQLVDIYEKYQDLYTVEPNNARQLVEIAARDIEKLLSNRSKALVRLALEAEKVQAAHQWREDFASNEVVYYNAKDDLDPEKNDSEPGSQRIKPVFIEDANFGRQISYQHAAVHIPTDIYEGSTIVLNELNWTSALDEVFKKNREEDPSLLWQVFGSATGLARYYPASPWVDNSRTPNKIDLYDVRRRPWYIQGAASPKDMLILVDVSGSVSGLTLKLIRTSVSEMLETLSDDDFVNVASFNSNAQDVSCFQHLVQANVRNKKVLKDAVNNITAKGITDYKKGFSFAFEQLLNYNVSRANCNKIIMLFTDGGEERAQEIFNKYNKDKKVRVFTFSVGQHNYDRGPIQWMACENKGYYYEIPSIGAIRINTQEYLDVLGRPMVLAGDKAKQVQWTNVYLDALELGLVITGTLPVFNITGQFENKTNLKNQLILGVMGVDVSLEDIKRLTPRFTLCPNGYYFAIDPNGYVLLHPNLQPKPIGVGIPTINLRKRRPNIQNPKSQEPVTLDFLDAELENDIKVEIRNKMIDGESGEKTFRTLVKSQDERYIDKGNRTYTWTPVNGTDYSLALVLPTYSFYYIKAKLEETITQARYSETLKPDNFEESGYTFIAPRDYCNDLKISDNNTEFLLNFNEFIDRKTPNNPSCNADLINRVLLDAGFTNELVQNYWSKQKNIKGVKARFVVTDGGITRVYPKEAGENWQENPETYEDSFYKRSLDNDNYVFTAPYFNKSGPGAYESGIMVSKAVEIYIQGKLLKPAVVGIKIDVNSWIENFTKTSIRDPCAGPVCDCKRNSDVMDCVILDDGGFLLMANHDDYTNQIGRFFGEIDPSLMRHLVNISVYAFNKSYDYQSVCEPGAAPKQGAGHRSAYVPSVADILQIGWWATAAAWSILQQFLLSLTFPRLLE
Calcium Channel CaV1.2, sequence (P54289 957-1103 partner limits assumed): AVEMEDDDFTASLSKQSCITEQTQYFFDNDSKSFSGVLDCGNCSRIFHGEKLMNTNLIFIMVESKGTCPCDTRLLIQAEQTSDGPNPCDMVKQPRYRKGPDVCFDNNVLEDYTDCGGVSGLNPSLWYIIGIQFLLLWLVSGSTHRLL

Nc1nonc1-c1nc2ccccc2n1Cc1ccncc1 [C101248]
activation time constant (τ) (THIK-1; 0.5 μM): 217.4 ± 61.4 s
activation time constant (τ) (THIK-1; 5 μM): 83.4 ± 17.2 s
effect on baseline membrane current in THIK-1 KO mice ([1]; microglia voltage-clamped at 0 mV, THIK-1 KO mice): no further changes
effect on inward or outward currents induced by depolarising voltage steps ([1]; voltage steps −150 mV to +60 mV): no effect
inhibition at 10 µM (Calcium Channel CaV1.2): 12%
inhibition at 10 µM (Cannabinoid CB1): 22%
inhibition at 10 µM (Histamine H1): 21%
